Test results from ChEMBL document CHEMBL2346553, “Synthesis and evaluation of non-dimeric HCV NS5A inhibitors” (Bioorg Med Chem Lett, 2013).

Legend:
[1] = tested on: Hepatitis C virus; test: microbe, parasite or virus in culture; conditions: genotype 1b, Huh-7
[2] = tested on: Vero; conditions: chlorocebus sabaeus
[3] = tested on: CCRF-CEM; conditions: human
[4] = tested on: PBMC; conditions: human
[5] = in vitro; conditions: human, HuH7 cells
[6] = molecular target: Cytochrome P450 2D6 (Homo sapiens, UniProt P10635)
[7] = molecular target: Cytochrome P450 2C9 (Homo sapiens, UniProt P11712)
[8] = molecular target: T1, Cytochrome P450 1A2 (Homo sapiens, UniProt P05177)
T1 sequence (P05177 whole entry): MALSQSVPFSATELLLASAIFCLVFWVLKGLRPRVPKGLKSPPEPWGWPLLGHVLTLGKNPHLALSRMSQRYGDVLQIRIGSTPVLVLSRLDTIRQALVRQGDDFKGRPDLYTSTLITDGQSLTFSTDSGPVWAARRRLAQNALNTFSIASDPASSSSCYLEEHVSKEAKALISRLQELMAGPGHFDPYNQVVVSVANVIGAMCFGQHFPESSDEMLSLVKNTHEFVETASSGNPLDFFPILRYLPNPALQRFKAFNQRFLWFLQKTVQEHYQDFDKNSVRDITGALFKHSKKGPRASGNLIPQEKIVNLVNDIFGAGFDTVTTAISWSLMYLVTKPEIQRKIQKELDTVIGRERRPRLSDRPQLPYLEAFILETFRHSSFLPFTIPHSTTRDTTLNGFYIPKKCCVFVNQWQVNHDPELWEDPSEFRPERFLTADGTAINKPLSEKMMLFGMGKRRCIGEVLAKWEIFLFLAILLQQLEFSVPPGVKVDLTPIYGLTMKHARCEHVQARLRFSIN

[9] = molecular target: Cytochrome P450 3A4 (Homo sapiens, UniProt P08684)
[10] = molecular target: CYP2D6 (Homo sapiens, UniProt P10635); test: in vitro
[11] = molecular target: CYP2C9 (Homo sapiens, UniProt P11712); test: in vitro
[12] = molecular target: T2, CYP1A2 (Homo sapiens, UniProt P05177); test: in vitro
T2 sequence (P05177 whole entry): T1 sequence (P05177 whole entry)

[13] = molecular target: CYP3A4 (Homo sapiens, UniProt P08684); test: in vitro
[14] = in vitro; conditions: human, CEM cells
[15] = in vitro; conditions: human, pbmc

Cytochrome P450 2C9, sequence (P11712 whole entry): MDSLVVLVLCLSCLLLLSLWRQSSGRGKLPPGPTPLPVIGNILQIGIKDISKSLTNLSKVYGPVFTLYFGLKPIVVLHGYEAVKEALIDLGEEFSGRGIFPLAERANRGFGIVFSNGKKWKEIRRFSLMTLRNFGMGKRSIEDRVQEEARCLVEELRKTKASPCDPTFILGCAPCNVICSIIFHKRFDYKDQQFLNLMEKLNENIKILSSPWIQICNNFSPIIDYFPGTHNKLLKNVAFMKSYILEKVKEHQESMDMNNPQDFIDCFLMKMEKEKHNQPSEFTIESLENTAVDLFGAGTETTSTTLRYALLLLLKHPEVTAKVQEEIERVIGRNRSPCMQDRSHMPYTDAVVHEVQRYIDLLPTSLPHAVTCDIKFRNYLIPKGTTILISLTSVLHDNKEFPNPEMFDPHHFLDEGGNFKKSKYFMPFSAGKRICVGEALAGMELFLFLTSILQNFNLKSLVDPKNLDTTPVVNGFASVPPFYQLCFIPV
CYP2C9, sequence (P11712 whole entry): as above
Cytochrome P450 2D6, sequence (P10635 whole entry): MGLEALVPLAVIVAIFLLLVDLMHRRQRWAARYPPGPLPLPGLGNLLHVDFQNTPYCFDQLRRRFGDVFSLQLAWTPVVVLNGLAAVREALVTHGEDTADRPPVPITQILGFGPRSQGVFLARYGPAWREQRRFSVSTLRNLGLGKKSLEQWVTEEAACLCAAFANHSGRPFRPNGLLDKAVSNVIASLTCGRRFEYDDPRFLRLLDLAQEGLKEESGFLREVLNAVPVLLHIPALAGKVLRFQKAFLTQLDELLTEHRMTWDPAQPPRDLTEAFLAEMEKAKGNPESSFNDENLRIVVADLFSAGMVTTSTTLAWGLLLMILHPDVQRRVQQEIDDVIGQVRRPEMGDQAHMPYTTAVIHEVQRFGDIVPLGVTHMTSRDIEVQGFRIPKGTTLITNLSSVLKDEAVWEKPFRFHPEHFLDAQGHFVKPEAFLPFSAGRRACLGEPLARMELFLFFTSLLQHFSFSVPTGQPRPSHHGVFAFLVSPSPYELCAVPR
CYP2D6, sequence (P10635 whole entry): as above
Cytochrome P450 3A4, sequence (P08684 whole entry): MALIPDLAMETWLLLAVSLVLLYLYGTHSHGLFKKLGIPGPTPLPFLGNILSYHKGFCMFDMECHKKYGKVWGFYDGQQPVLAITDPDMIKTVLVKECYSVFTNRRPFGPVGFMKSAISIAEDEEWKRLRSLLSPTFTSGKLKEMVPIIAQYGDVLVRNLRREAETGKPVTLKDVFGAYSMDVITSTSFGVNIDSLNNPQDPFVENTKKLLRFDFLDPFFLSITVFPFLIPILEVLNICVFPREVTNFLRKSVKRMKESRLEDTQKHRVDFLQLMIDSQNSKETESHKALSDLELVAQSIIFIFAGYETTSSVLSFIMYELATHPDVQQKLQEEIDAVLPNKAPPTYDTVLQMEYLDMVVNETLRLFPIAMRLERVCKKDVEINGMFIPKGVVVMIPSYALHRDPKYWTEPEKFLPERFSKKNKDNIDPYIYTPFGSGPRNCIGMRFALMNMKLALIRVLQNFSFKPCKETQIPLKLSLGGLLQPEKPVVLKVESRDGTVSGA
CYP3A4, sequence (P08684 whole entry): as above

| SMILES | EC50 [1] | EC90 [1] | CC50 [2] | CC50 [3] | CC50 [4] | CC50 [5] | IC50 [6] | IC50 [7] | IC50 [8] | IC50 [9] | IC90 [10] | IC90 [11] | IC90 [12] | IC90 [13] | CC50 [14] | CC50 [15] |
| --- | --- | --- | --- | --- | --- | --- | --- | --- | --- | --- | --- | --- | --- | --- | --- | --- |
| COC(=O)N[C@H](C(=O)N1CCC[C@H]1c1ncc(-c2ccc(-c3ccc(-c4cnc([C@@H]5CCCN5C(=O)[C@@H](NC(=O)OC)C(C)C)[nH]4)cc3)cc2)[nH]1)C(C)C | 0.01 nM | 0.03 nM |  |  |  |  |  |  |  |  |  |  |  |  |  |  |
| COC(=O)N[C@H](C(=O)N1CCC[C@H]1c1ncc(-c2ccccc2)[nH]1)C(C)C | > 1000 nM |  | > 100 µM | > 100 µM | > 100 µM | > 1 µM |  |  |  |  |  |  |  |  |  |  |
| COC(=O)N[C@H](C(=O)N1CCC[C@H]1c1ncc(-c2ccc(Br)cc2)[nH]1)C(C)C | > 100 nM |  | 48 µM | 50 µM | > 100 µM | > 1 µM |  |  |  |  |  |  |  |  |  |  |
| COC(=O)N[C@H](C(=O)N1CCC[C@H]1c1ncc(-c2ccc(N=[N+]=[N-])cc2)[nH]1)C(C)C | 8 nM | 52 nM | > 100 µM | > 100 µM | > 100 µM | > 1 µM | > 100 µM | > 100 µM | > 100 µM | 5.1 µM | > 100 µM | > 100 µM | > 100 µM | 96.1 µM |  |  |
| COC(=O)N[C@H](C(=O)N1CCC[C@H]1c1ncc(-c2ccc(C#N)cc2)[nH]1)C(C)C | > 100 nM |  | 33 µM | 98 µM | > 100 µM | > 1 µM |  |  |  |  |  |  |  |  |  |  |
| COC(=O)N[C@H](C(=O)N1CCC[C@H]1c1ncc(-c2ccc(C)cc2)[nH]1)C(C)C | > 1000 nM |  | > 100 µM | > 100 µM | > 100 µM | > 1 µM |  |  |  |  |  |  |  |  |  |  |
| C=CC[C@H](NC(C)=O)C(=O)N1CCC[C@H]1c1ncc(-c2ccc(-c3ccccc3)cc2)[nH]1 | > 1000 nM |  | 21 µM | 73 µM | 100 µM | > 1 µM |  |  |  |  |  |  |  |  |  |  |
| COC(=O)N[C@H](C(=O)N1CCC[C@H]1c1ncc(-c2ccc(Cl)cc2Cl)[nH]1)C(C)C | 1000 nM |  | 15 µM |  | 56 µM | > 1 µM |  |  |  |  |  |  |  |  | > 100 µM |  |
| COC(=O)N[C@H](C(=O)N1CCC[C@H]1c1nc(Cl)c(-c2ccc(N=[N+]=[N-])cc2)[nH]1)C(C)C | 4 nM | 14 nM | 12 µM |  | 94 µM | > 1 µM |  |  |  |  |  |  |  |  | > 100 µM |  |
| COC(=O)N[C@H](C(=O)N1CCC[C@H]1c1ncc(-c2ccc(-c3ccc(C#N)cc3)cc2)[nH]1)C(C)C | > 100 nM |  | 33 µM | 98 µM | > 100 µM | > 1 µM |  |  |  |  |  |  |  |  |  |  |
| COC(=O)N[C@H](C(=O)N1CCC[C@H]1c1nc(-c2ccc(-c3ccc(C(F)(F)F)cc3)cc2)c[nH]1)C(C)C | 4.6 nM | 9.6 nM | 14 µM | 12 µM | > 100 µM | > 1 µM | 62.1 µM | 9.1 µM | 82.9 µM | 6.5 µM | > 100 µM | > 100 µM | > 100 µM | > 100 µM |  |  |
| COC(=O)N[C@H](C(=O)N1CCC[C@H]1c1ncc(-c2ccc(-c3ccc(C(N)=O)cc3)cc2)[nH]1)C(C)C | 21 nM | 76 nM | > 100 µM | > 100 µM | > 100 µM | > 1 µM |  |  |  |  |  |  |  |  |  |  |
| COC(=O)N[C@H](C(=O)N1CCC[C@H]1c1ncc(-c2ccc(-c3ccc(C(=O)OC)cc3)cc2)[nH]1)C(C)C | > 100 nM |  | 17 µM | 61 µM | 14 µM | > 1 µM |  |  |  |  |  |  |  |  |  |  |
| COC(=O)N[C@H](C(=O)N1CCC[C@H]1c1nc(-c2ccc(-c3ccc(CO)cc3)cc2)c[nH]1)C(C)C | 2 nM | 9 nM | 59 µM | 67 µM | > 100 µM | > 1 µM | > 100 µM | 31.2 µM | 56.7 µM | 6.9 µM | > 100 µM | > 100 µM | > 100 µM | > 100 µM |  |  |
| COC(=O)N[C@H](C(=O)N1CCC[C@H]1c1nc(Cl)c(-c2ccc(-c3ccc(C(F)(F)F)cc3)cc2)[nH]1)C(C)C | > 100 nM |  | 10 µM | 10 µM | 11 µM | > 1 µM |  |  |  |  |  |  |  |  |  |  |

More lines, main results first:

| EC50 [1] | EC90 [1] | SMILES | CC50 [2] | CC50 [3] | CC50 [4] | CC50 [5] | IC50 [6] | IC50 [7] | IC50 [8] | IC50 [9] | IC90 [10] | IC90 [11] | IC90 [12] | IC90 [13] | CC50 [14] | CC50 [15] |
| --- | --- | --- | --- | --- | --- | --- | --- | --- | --- | --- | --- | --- | --- | --- | --- | --- |
| > 100 nM |  | COC(=O)N[C@H](C(=O)N1CCC[C@H]1c1ncc(-c2ccc([N+](=O)[O-])cc2)[nH]1)C(C)C | > 100 µM | > 100 µM | > 100 µM | > 1 µM |  |  |  |  |  |  |  |  |  |  |
| > 100 nM |  | COC(=O)N[C@H](C(=O)N1CCC[C@H]1c1ncc(-c2ccc(OC(F)(F)F)cc2)[nH]1)C(C)C | 30 µM |  | 49 µM | > 1 µM |  |  |  |  |  |  |  |  | > 100 µM |  |
| > 100 nM |  | COC(=O)N[C@H](C(=O)N1CCC[C@H]1c1ncc(-c2ccc(C(F)(F)F)cc2)[nH]1)C(C)C | 26 µM |  |  | > 1 µM |  |  |  |  |  |  |  |  | > 100 µM | > 100 µM |
| > 1000 nM |  | COC(=O)N[C@H](C(=O)N1CCC[C@H]1c1ncc(-c2ccc(OC)cc2)[nH]1)C(C)C | > 100 µM | > 100 µM | > 100 µM | > 1 µM |  |  |  |  |  |  |  |  |  |  |
| 300 nM | 900 nM | COC(=O)N[C@H](C(=O)N1CCC[C@H]1c1ncc(-c2ccc(-c3ccccc3)cc2)[nH]1)C(C)C | 18 µM | 70 µM | 14 µM | > 1 µM |  |  |  |  |  |  |  |  |  |  |
| > 100 nM | > 1000 nM | COC(=O)N[C@@H](CC(C)C)C(=O)N1CCC[C@H]1c1ncc(-c2ccc(-c3ccccc3)cc2)[nH]1 | 25 µM | 61 µM | 16 µM | > 1 µM |  |  |  |  |  |  |  |  |  |  |
| > 1000 nM |  | C[C@H](NC(=O)OC(C)(C)C)C(=O)N1CCC[C@H]1c1ncc(-c2ccc(-c3ccccc3)cc2)[nH]1 | 13 µM | 11 µM | 16 µM | > 1 µM |  |  |  |  |  |  |  |  |  |  |
| > 100 nM |  | COC(=O)N[C@H](C(=O)N1CCC[C@H]1c1ncc(-c2ccc(S(=O)(=O)c3ccccc3)cc2)[nH]1)C(C)C | > 100 µM | > 100 µM | > 100 µM | > 1 µM |  |  |  |  |  |  |  |  |  |  |
| 0.7 nM | 2.9 nM | COC(=O)N[C@H](C(=O)N1CCC[C@H]1c1nc(Br)c(-c2ccc(N=[N+]=[N-])cc2)[nH]1)C(C)C | 16 µM | 52 µM | 35 µM | > 1 µM | 50.5 µM | 50.5 µM | 80.9 µM | 1.5 µM | > 100 µM | > 100 µM | > 100 µM | 46.1 µM |  |  |
| 2 nM | 3 nM | COC(=O)N[C@H](C(=O)N1CCC[C@H]1c1nc(I)c(-c2ccc(N=[N+]=[N-])cc2)[nH]1)C(C)C | 14.2 µM |  | 64.2 µM | > 1 µM |  |  |  |  |  |  |  |  | > 100 µM |  |
| > 100 nM |  | COC(=O)N[C@H](C(=O)N1CCC[C@H]1c1ncc(-c2ccc(-c3ccc(C)cc3)cc2)[nH]1)C(C)C | 14 µM | 16 µM | 90 µM | > 1 µM |  |  |  |  |  |  |  |  |  |  |
| > 1000 nM |  | COC(=O)N[C@H](C(=O)N1CCC[C@H]1c1ncc(-c2ccc(-c3cccc(O)c3)cc2)[nH]1)C(C)C | 50 µM |  |  | > 1 µM |  |  |  |  |  |  |  |  | > 100 µM | > 100 µM |
| > 100 nM |  | COC(=O)N[C@H](C(=O)N1CCC[C@H]1c1ncc(-c2ccc(-c3ccc(OC)cc3)cc2)[nH]1)C(C)C | 13 µM | 30 µM | 85 µM | > 1 µM |  |  |  |  |  |  |  |  |  |  |
| > 100 nM |  | COC(=O)N[C@H](C(=O)N1CCC[C@H]1c1ncc(-c2ccc(-c3ccc(S(C)(=O)=O)cc3)cc2)[nH]1)C(C)C | 6 µM | 54 µM | > 100 µM | > 1 µM |  |  |  |  |  |  |  |  |  |  |
| > 100 nM |  | COC(=O)N[C@H](C(=O)N1CCC[C@H]1c1ncc(-c2ccc(-c3ccc(N=[N+]=[N-])cc3)cc2)[nH]1)C(C)C | 11 µM | 11 µM | 37 µM | > 1 µM |  |  |  |  |  |  |  |  |  |  |
| 200 nM | 300 nM | COC(=O)N[C@H](C(=O)N1CCC[C@H]1c1ncc(-c2ccc(N)cc2)[nH]1)C(C)C | > 100 µM | > 100 µM | > 100 µM | > 1 µM |  |  |  |  |  |  |  |  |  |  |
| > 100 nM |  | COC(=O)Nc1ccc(-c2cnc([C@@H]3CCCN3C(=O)[C@@H](NC(=O)OC)C(C)C)[nH]2)cc1 | > 100 µM | > 100 µM | > 100 µM | > 1 µM |  |  |  |  |  |  |  |  |  |  |
| > 100 nM |  | COC(=O)N[C@H](C(=O)N1CCC[C@H]1c1ncc(-c2ccc(NS(C)(=O)=O)cc2)[nH]1)C(C)C | 13 µM |  |  | > 1 µM |  |  |  |  |  |  |  |  | > 100 µM | > 100 µM |
